Measured values as given in patent publication US20230285387A1, “COMBINATION OF MORPHINAN COMPOUNDS AND ANTI[…] THE TREATMENT OF PS[…], NEUROLOGICAL DISEASES, I[…] CHRONIC PAIN AND BRAIN INJURY” (Concert Pharmaceuticals, Inc., priority 2008, published 2023).
Counter-ions that a name gives are not always drawn.

Experiments:
Human CYP2D6 SUPERSOMES = target: T1, Human CYP2D6 SUPERSOMES (Homo sapiens, UniProt P10635); experiment: Metabolic stability in CYP2D6 SUPERSOMES; format: in vitro ADME; settings: 1 μM test compound, 2 mM NADPH, 0.1 M potassium phosphate buffer pH 7.4, 37° C., 0-30 minutes, parent remaining by LC-MS/MS
T1 construct: purchased GenTest (Woburn, Mass., USA)
T1 sequence (P10635 whole entry): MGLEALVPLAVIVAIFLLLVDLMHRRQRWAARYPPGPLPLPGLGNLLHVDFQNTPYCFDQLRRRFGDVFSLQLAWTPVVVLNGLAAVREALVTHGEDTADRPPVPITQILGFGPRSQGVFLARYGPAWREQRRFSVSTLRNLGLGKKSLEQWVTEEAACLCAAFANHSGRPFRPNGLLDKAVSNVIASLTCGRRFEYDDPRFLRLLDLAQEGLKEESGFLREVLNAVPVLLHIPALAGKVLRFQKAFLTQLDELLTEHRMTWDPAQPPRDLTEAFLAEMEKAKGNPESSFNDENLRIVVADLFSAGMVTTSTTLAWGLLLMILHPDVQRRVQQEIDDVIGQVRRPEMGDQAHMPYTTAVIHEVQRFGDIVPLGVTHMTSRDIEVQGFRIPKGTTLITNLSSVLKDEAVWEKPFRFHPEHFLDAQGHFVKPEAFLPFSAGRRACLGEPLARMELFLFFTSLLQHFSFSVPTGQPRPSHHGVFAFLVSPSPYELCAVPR
Procedure: (§1) Human CYP2D6 SUPERSOMES™ were purchased from GenTest (Woburn, Mass., USA). […] The 7.5 mM stock solutions were diluted to 50 μM in acetonitrile (ACN). The […] CYP2D6 supersomes were diluted to 62.5 μmol/mL in 0.1 M potassium phosphate buffer, pH 7.4, containing 3 mM MgCl2. The diluted SUPERSOMES™ were added to wells of a 96-well deep-well polypropylene plate in triplicate. 10 μL of the 50 μM test compound was added to the supersomes and the mixture was pre-warmed for 10 minutes. Reactions were initiated by addition of pre-warmed NADPH solution. The final reaction volume was 0.5 mL and contained 50 μmol/mL CYP2D6 SUPERSOMES™, 1 μM test compound, and 2 mM NADPH in 0.1 M potassium phosphate buffer, pH 7.4, and 3 mM MgCl2. The reaction mixtures were incubated at 37° C. and 50 μL aliquots were removed at 0, 5, 10, 20, and 30 minutes and added to shallow-well 96-well plates which contained 50 μL of ice-cold ACN with internal standard to stop the reactions. The plates were stored at 4° C. for 20 minutes after which 100 μL of water was added to the wells of the plate before centrifugation to pellet precipitated proteins. Supernatants were transferred to another 96-well plate and analyzed for amounts of parent remaining by LC-MS/MS using an Applied Bio-systems API 4000 mass spectrometer.
(§2) The in vitro half-life (t1/2) for each of the test compounds was calculated from the slopes of the linear regression of % parent remaining (ln) vs incubation time relationship: in vitro t1/2=0.693/k, where k=−[slope of linear regression of % parent remaining(ln) vs incubation time]. Data analysis was performed using Microsoft Excel Software.

CYP2D6 = target: T2, CYP2D6 (Homo sapiens, UniProt P10635); experiment: Metabolic stability in CYP2D6 SUPERSOMES; format: in vitro ADME; settings: human, recombinant human CYP2D6 SUPERSOMES; 1 μM test compound, 2 mM NADPH, 0.1 M potassium phosphate buffer pH 7.4, 37° C., 0-30 minutes, parent remaining by LC-MS/MS; read-out: t1/2 ± SD (calculated in vitro half-life in SUPERSOMES)
T2 construct: purchased GenTest (Woburn, Mass., USA)
T2 sequence (P10635 whole entry): as above
Procedure: as §1, §2

Compound	t1/2 ± SD (calculated in vitro half-life in SUPERSOMES) (Human CYP2D6 SUPERSOMES) [min]	half-life at 1 μM (CYP2D6) [min]
[2H]C([2H])([2H])N1CC[C@@]23CCCC[C@@H]2[C@@H]1Cc1ccc(OC([2H])(C([2H])([2H])[2H])C([2H])([2H])[2H])cc13 [Compound 102, (+)-3-(Isopropoxy-d7)-17-(methyl-d3)-(9α,13α,14α)-morphinan]	39.0 ± 1.9	
[2H]C([2H])([2H])Oc1ccc2c(c1)[C@]13CCCC[C@@H]1[C@H](C2)N(C([2H])([2H])[2H])CC3 [Test Compound, (+)-3-d3-methoxy-17-d3-methyl-(9α,13α,14α)-morphinan]		5.6 ± 1.5
[2H]C([2H])([2H])C([2H])(Oc1ccc2c(c1)[C@]13CCCC[C@@H]1C(C2)N(C)CC3)C([2H])([2H])[2H] (single isomer, unassigned; (+)) [Compound 106, (+)-3-(Isopropoxy-d7)-17-methyl-(9α,13α,14α)-morphinan]		36 ± 2.8
[2H]C([2H])([2H])C([2H])([2H])Oc1ccc2c(c1)[C@]13CCCC[C@@H]1C(C2)N(C)CC3 (single isomer, unassigned; (+)) [Compound 104, (+)-3-(Ethoxy-d5)-17-methyl-(9α,13α,14α)-morphinan hydrochloride]		49.1 ± 4.1
